Data reported in PubChem BioAssay (NCI).
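Cultured in 96-well plates, cells were exposed to test compound for 48 hours across five concentrations. GI50 is the concentration that inhibits growth by half. At the TGI there is no net growth.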

Experiments:
Assay in all cases: inhibition of tumour cell growth, NCI panel, 48 h
HOP-92 NSCLC = system: HOP-92 NSCLC
SK-MEL-5 melanoma = system: SK-MEL-5 melanoma
A549 NSCLC = system: A549 NSCLC
K-562 leukemia = system: K-562 leukemia
BT-549 breast = system: BT-549 breast
HL-60(TB) leukemia = system: HL-60(TB) leukemia
NCI/ADR-RES ovarian = system: NCI/ADR-RES ovarian
HCC-2998 colon = system: HCC-2998 colon
U251 CNS = system: U251 CNS
SF-268 CNS = system: SF-268 CNS
A498 renal = system: A498 renal
LOX IMVI melanoma = system: LOX IMVI melanoma
SK-OV-3 ovarian = system: SK-OV-3 ovarian
HS 578T breast = system: HS 578T breast
NCI-H460 lung = system: NCI-H460 lung
KM12 colon = system: KM12 colon
MALME-3M melanoma = system: MALME-3M melanoma
CAKI-1 renal = system: CAKI-1 renal
OVCAR-4 ovarian = system: OVCAR-4 ovarian
SF-295 CNS = system: SF-295 CNS
NCI-H23 lung = system: NCI-H23 lung
SN12C renal = system: SN12C renal
SK-MEL-28 melanoma = system: SK-MEL-28 melanoma
786-0 renal = system: 786-0 renal
TK-10 renal = system: TK-10 renal
MDA-MB-231 breast = system: MDA-MB-231 breast
SNB-75 CNS = system: SNB-75 CNS
SW-620 colon = system: SW-620 colon
MDA-MB-435 = system: MDA-MB-435
MCF7 breast = system: MCF7 breast
UO-31 renal = system: UO-31 renal
SR leukemia = system: SR leukemia
HCT-116 colon = system: HCT-116 colon
CCRF-CEM leukemia = system: CCRF-CEM leukemia
SF-539 CNS = system: SF-539 CNS
SNB-19 CNS = system: SNB-19 CNS
DU-145 prostate = system: DU-145 prostate
ACHN renal = system: ACHN renal
RPMI-8226 leukemia = system: RPMI-8226 leukemia
M14 melanoma = system: M14 melanoma
NCI-H226 lung = system: NCI-H226 lung
RXF 393 renal = system: RXF 393 renal
MOLT-4 leukemia = system: MOLT-4 leukemia
HCT-15 colon = system: HCT-15 colon
HT29 colon = system: HT29 colon
NCI-H522 lung = system: NCI-H522 lung
UACC-62 melanoma = system: UACC-62 melanoma
HOP-62 NSCLC = system: HOP-62 NSCLC
OVCAR-5 ovarian = system: OVCAR-5 ovarian
OVCAR-3 ovarian = system: OVCAR-3 ovarian
COLO 205 colon = system: COLO 205 colon
OVCAR-8 ovarian = system: OVCAR-8 ovarian
UACC-257 melanoma = system: UACC-257 melanoma
T-47D breast = system: T-47D breast
IGROV1 ovarian = system: IGROV1 ovarian
PC-3 prostate = system: PC-3 prostate
EKVX NSCLC = system: EKVX NSCLC
SK-MEL-2 melanoma = system: SK-MEL-2 melanoma

C/C(=C\CCc1ccsc1)CC/C=C(\C)CCCN1CCC(CO)CC1
GI50 (HOP-92 NSCLC): 1020 nM
TGI (HOP-92 NSCLC): 3.69 µM
GI50 (SK-MEL-5 melanoma): 1550 nM
TGI (SK-MEL-5 melanoma): 2.95 µM
GI50 (A549 NSCLC): 2350 nM
TGI (A549 NSCLC): 7.56 µM
GI50 (K-562 leukemia): 1280 nM
TGI (K-562 leukemia): 3.41 µM
GI50 (BT-549 breast): 1700 nM
TGI (BT-549 breast): 3.51 µM
GI50 (HL-60(TB) leukemia): 1940 nM
TGI (HL-60(TB) leukemia): 3.99 µM
GI50 (NCI/ADR-RES ovarian): 3330 nM
TGI (NCI/ADR-RES ovarian): 13.3 µM
GI50 (HCC-2998 colon): 1970 nM
TGI (HCC-2998 colon): 3.77 µM
GI50 (U251 CNS): 1420 nM
TGI (U251 CNS): 3.11 µM
GI50 (SF-268 CNS): 5060 nM
TGI (SF-268 CNS): 19.4 µM
GI50 (A498 renal): 1.24 µM
TGI (A498 renal): 3.5 µM
GI50 (LOX IMVI melanoma): 1770 nM
TGI (LOX IMVI melanoma): 3.27 µM
GI50 (SK-OV-3 ovarian): 5.15 µM
TGI (SK-OV-3 ovarian): 18.4 µM
GI50 (HS 578T breast): 2000 nM
TGI (HS 578T breast): 6.19 µM
GI50 (NCI-H460 lung): 1920 nM
TGI (NCI-H460 lung): 3.85 µM
GI50 (KM12 colon): 1880 nM
TGI (KM12 colon): 3.47 µM
GI50 (MALME-3M melanoma): 1710 nM
TGI (MALME-3M melanoma): 3.37 µM
GI50 (CAKI-1 renal): 2610 nM
TGI (CAKI-1 renal): 9.22 µM
GI50 (OVCAR-4 ovarian): 2300 nM
TGI (OVCAR-4 ovarian): 9.5 µM
GI50 (SF-295 CNS): 2 µM
TGI (SF-295 CNS): 4.13 µM
GI50 (NCI-H23 lung): 3.4 µM
TGI (NCI-H23 lung): 12.9 µM
GI50 (SN12C renal): 3.24 µM
TGI (SN12C renal): 14.2 µM
GI50 (SK-MEL-28 melanoma): 1690 nM
TGI (SK-MEL-28 melanoma): 3.38 µM
GI50 (786-0 renal): 1770 nM
TGI (786-0 renal): 3360 nM
GI50 (TK-10 renal): 1760 nM
TGI (TK-10 renal): 3.29 µM
GI50 (MDA-MB-231 breast): 1380 nM
TGI (MDA-MB-231 breast): 2870 nM
GI50 (SNB-75 CNS): 1690 nM
TGI (SNB-75 CNS): 4.56 µM
GI50 (SW-620 colon): 2020 nM
TGI (SW-620 colon): 4.77 µM
GI50 (MDA-MB-435): 1870 nM
TGI (MDA-MB-435): 3.87 µM
GI50 (MCF7 breast): 2170 nM
TGI (MCF7 breast): 5.09 µM
GI50 (UO-31 renal): 2830 nM
TGI (UO-31 renal): 16 µM
GI50 (SR leukemia): 1810 nM
TGI (SR leukemia): 4400 nM
GI50 (HCT-116 colon): 1670 nM
TGI (HCT-116 colon): 3.32 µM
GI50 (CCRF-CEM leukemia): 2090 nM
TGI (CCRF-CEM leukemia): 4.8 µM
GI50 (SF-539 CNS): 1690 nM
TGI (SF-539 CNS): 3.36 µM
GI50 (SNB-19 CNS): 2.63 µM
TGI (SNB-19 CNS): 9.28 µM
GI50 (DU-145 prostate): 4690 nM
TGI (DU-145 prostate): 16.1 µM
GI50 (ACHN renal): 3020 nM
TGI (ACHN renal): 11.5 µM
GI50 (RPMI-8226 leukemia): 1930 nM
TGI (RPMI-8226 leukemia): 4.15 µM
GI50 (M14 melanoma): 1920 nM
TGI (M14 melanoma): 3.73 µM
GI50 (NCI-H226 lung): 3.94 µM
TGI (NCI-H226 lung): 21 µM
GI50 (RXF 393 renal): 1310 nM
TGI (RXF 393 renal): 3.19 µM
GI50 (MOLT-4 leukemia): 2300 nM
TGI (MOLT-4 leukemia): 5.8 µM
GI50 (HCT-15 colon): 1860 nM
TGI (HCT-15 colon): 4.01 µM
GI50 (HT29 colon): 1940 nM
TGI (HT29 colon): 5.64 µM
GI50 (NCI-H522 lung): 1900 nM
TGI (NCI-H522 lung): 3.74 µM
GI50 (UACC-62 melanoma): 1810 nM
TGI (UACC-62 melanoma): 3.64 µM
GI50 (HOP-62 NSCLC): 1890 nM
TGI (HOP-62 NSCLC): 3.63 µM
GI50 (OVCAR-5 ovarian): 2770 nM
TGI (OVCAR-5 ovarian): 11.6 µM
GI50 (OVCAR-3 ovarian): 2110 nM
TGI (OVCAR-3 ovarian): 4.29 µM
GI50 (COLO 205 colon): 1920 nM
TGI (COLO 205 colon): 3.95 µM
GI50 (OVCAR-8 ovarian): 3020 nM
TGI (OVCAR-8 ovarian): 12.8 µM
GI50 (UACC-257 melanoma): 1840 nM
TGI (UACC-257 melanoma): 4.06 µM
GI50 (T-47D breast): 2220 nM
TGI (T-47D breast): 6.03 µM
GI50 (IGROV1 ovarian): 3260 nM
TGI (IGROV1 ovarian): 10.8 µM

COC1=CC(c2ccc[nH]2)=N/C1=C\c1[nH]c(C)c(C(C)=O)c1C
GI50 (HOP-92 NSCLC): 671 nM
TGI (HOP-92 NSCLC): 5.13 µM
GI50 (SK-MEL-5 melanoma): 768 nM
TGI (SK-MEL-5 melanoma): 3.07 µM
GI50 (A549 NSCLC): 2020 nM
TGI (A549 NSCLC): > 44.8 µM
GI50 (K-562 leukemia): 3280 nM
TGI (K-562 leukemia): > 45.4 µM
GI50 (BT-549 breast): 222 nM
TGI (BT-549 breast): > 100 µM
GI50 (HL-60(TB) leukemia): 168 nM
GI50 (NCI/ADR-RES ovarian): 458 nM
TGI (NCI/ADR-RES ovarian): > 100 µM
GI50 (HCC-2998 colon): 2080 nM
TGI (HCC-2998 colon): > 100 µM
GI50 (U251 CNS): 1190 nM
TGI (U251 CNS): > 57.2 µM
GI50 (SF-268 CNS): 854 nM
TGI (SF-268 CNS): > 100 µM
GI50 (A498 renal): 18.1 µM
TGI (A498 renal): 57 µM
GI50 (SK-OV-3 ovarian): > 25.9 µM
TGI (SK-OV-3 ovarian): > 100 µM
GI50 (HS 578T breast): 552 nM
TGI (HS 578T breast): > 100 µM
GI50 (NCI-H460 lung): 451 nM
TGI (NCI-H460 lung): > 22.8 µM
GI50 (KM12 colon): 262 nM
TGI (KM12 colon): > 100 µM
GI50 (CAKI-1 renal): 630 nM
TGI (CAKI-1 renal): > 100 µM
GI50 (OVCAR-4 ovarian): 3510 nM
TGI (OVCAR-4 ovarian): > 100 µM
GI50 (SF-295 CNS): 10 µM
TGI (SF-295 CNS): > 100 µM
GI50 (NCI-H23 lung): 5.12 µM
TGI (NCI-H23 lung): > 100 µM
GI50 (SN12C renal): 4.46 µM
TGI (SN12C renal): > 100 µM
GI50 (SK-MEL-28 melanoma): 2460 nM
TGI (SK-MEL-28 melanoma): > 100 µM
GI50 (786-0 renal): 309 nM
TGI (786-0 renal): 1620 nM
GI50 (TK-10 renal): 1060 nM
TGI (TK-10 renal): > 63.5 µM
GI50 (PC-3 prostate): 302 nM
TGI (PC-3 prostate): > 100 µM
GI50 (SW-620 colon): 60.5 nM
GI50 (MDA-MB-435): 299 nM
TGI (MDA-MB-435): > 100 µM
GI50 (MCF7 breast): 1050 nM
TGI (MCF7 breast): > 100 µM
GI50 (UO-31 renal): 226 nM
TGI (UO-31 renal): 0.641 µM
TGI (SR leukemia): 379 nM
GI50 (HCT-116 colon): 57.6 nM
TGI (HCT-116 colon): > 100 µM
GI50 (CCRF-CEM leukemia): 18.3 nM
TGI (CCRF-CEM leukemia): > 100 µM
GI50 (SF-539 CNS): 2150 nM
TGI (SF-539 CNS): 54.4 µM
GI50 (SNB-19 CNS): 24.2 µM
TGI (SNB-19 CNS): > 100 µM
GI50 (DU-145 prostate): 355 nM
TGI (DU-145 prostate): > 100 µM
GI50 (ACHN renal): 670 nM
TGI (ACHN renal): > 55.8 µM
GI50 (RPMI-8226 leukemia): 329 nM
TGI (RPMI-8226 leukemia): 2.69 µM
GI50 (NCI-H226 lung): 2.6 µM
TGI (NCI-H226 lung): > 82.1 µM
GI50 (MOLT-4 leukemia): 32 nM
TGI (MOLT-4 leukemia): > 100 µM
GI50 (HCT-15 colon): 210 nM
TGI (HCT-15 colon): 2.15 µM
GI50 (EKVX NSCLC): 2250 nM
TGI (EKVX NSCLC): > 100 µM
GI50 (SK-MEL-2 melanoma): 1990 nM
TGI (SK-MEL-2 melanoma): 6.63 µM
GI50 (HT29 colon): 88 nM
TGI (HT29 colon): > 100 µM
GI50 (NCI-H522 lung): 1600 nM
GI50 (HOP-62 NSCLC): 690 nM
TGI (HOP-62 NSCLC): > 42.2 µM
GI50 (OVCAR-5 ovarian): > 100000 nM
TGI (OVCAR-5 ovarian): > 100 µM
GI50 (OVCAR-3 ovarian): 178 nM
TGI (OVCAR-3 ovarian): > 100 µM
GI50 (COLO 205 colon): 790 nM
TGI (COLO 205 colon): > 100 µM
GI50 (OVCAR-8 ovarian): 326 nM
TGI (OVCAR-8 ovarian): > 100 µM
GI50 (UACC-257 melanoma): 3440 nM
TGI (UACC-257 melanoma): > 100 µM
GI50 (T-47D breast): 2750 nM
TGI (T-47D breast): 19.2 µM
GI50 (IGROV1 ovarian): 696 nM
TGI (IGROV1 ovarian): > 100 µM
